According to ChEMBL document CHEMBL5661976 (Cancer Res, 2007):
Calls of active or inactive are those of the source. The rule behind the calls is not given here.

Assays:
[1] = molecular target: Receptor tyrosine-protein kinase erbB-2 (Mus musculus, UniProt P70424); assay: Inhibition of ERBB2 expressed in mouse NIH3T3 cells; type: cell-based
[2] = molecular target: Receptor tyrosine-protein kinase erbB-3 (Homo sapiens) (UniProt P21860); assay: Inhibition of ERBB3 phosphorylation in human HCC827 cells expressing GFP at 1 to 10000 nmol/L incubated for 12 hrs by Western blotting analysis; type: cell-based; conditions: dose 1-10000 nmol/L
[3] = test system: NCI-H3255; assay: Induction of apoptosis in human NCI-H3255 cells assessed as increase in cleavage of PARP at 1 micromol/L incubated for 72 hrs by Western blotting analysis; type: functional, cell-based; conditions: dose 1.0 µmol/L

Receptor tyrosine-protein kinase erbB-2, sequence (P70424 whole entry): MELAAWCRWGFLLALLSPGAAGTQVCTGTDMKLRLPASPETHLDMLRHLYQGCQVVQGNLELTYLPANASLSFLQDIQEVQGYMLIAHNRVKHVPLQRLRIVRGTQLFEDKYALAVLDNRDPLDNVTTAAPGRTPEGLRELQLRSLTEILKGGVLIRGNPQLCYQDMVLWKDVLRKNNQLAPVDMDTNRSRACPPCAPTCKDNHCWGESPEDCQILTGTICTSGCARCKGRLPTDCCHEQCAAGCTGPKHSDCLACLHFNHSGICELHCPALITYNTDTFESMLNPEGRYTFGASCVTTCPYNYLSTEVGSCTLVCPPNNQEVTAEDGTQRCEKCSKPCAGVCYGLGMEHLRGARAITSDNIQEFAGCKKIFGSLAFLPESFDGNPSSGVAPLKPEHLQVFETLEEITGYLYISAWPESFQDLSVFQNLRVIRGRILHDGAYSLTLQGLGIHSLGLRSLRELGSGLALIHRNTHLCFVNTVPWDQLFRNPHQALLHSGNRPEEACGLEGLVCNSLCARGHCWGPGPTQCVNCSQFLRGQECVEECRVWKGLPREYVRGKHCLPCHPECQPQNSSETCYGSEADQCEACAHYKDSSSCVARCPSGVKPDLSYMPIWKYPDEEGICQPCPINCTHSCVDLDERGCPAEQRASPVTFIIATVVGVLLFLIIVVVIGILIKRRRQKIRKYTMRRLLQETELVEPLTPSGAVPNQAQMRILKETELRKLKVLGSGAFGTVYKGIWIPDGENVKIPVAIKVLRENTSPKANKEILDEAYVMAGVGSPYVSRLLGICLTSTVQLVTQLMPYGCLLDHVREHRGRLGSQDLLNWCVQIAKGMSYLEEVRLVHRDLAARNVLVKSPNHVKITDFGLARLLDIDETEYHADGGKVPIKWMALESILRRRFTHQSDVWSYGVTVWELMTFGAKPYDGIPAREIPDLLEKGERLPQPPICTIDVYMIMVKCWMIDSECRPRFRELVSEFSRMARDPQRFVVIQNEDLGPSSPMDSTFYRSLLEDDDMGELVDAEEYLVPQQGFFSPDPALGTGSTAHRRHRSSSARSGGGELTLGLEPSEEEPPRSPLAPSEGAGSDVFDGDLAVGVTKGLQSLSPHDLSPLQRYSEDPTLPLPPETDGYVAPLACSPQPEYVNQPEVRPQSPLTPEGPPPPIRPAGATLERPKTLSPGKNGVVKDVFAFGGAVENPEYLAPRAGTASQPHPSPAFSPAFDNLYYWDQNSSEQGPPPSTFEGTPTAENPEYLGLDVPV
Receptor tyrosine-protein kinase erbB-3 (Homo sapiens), sequence (P21860 whole entry): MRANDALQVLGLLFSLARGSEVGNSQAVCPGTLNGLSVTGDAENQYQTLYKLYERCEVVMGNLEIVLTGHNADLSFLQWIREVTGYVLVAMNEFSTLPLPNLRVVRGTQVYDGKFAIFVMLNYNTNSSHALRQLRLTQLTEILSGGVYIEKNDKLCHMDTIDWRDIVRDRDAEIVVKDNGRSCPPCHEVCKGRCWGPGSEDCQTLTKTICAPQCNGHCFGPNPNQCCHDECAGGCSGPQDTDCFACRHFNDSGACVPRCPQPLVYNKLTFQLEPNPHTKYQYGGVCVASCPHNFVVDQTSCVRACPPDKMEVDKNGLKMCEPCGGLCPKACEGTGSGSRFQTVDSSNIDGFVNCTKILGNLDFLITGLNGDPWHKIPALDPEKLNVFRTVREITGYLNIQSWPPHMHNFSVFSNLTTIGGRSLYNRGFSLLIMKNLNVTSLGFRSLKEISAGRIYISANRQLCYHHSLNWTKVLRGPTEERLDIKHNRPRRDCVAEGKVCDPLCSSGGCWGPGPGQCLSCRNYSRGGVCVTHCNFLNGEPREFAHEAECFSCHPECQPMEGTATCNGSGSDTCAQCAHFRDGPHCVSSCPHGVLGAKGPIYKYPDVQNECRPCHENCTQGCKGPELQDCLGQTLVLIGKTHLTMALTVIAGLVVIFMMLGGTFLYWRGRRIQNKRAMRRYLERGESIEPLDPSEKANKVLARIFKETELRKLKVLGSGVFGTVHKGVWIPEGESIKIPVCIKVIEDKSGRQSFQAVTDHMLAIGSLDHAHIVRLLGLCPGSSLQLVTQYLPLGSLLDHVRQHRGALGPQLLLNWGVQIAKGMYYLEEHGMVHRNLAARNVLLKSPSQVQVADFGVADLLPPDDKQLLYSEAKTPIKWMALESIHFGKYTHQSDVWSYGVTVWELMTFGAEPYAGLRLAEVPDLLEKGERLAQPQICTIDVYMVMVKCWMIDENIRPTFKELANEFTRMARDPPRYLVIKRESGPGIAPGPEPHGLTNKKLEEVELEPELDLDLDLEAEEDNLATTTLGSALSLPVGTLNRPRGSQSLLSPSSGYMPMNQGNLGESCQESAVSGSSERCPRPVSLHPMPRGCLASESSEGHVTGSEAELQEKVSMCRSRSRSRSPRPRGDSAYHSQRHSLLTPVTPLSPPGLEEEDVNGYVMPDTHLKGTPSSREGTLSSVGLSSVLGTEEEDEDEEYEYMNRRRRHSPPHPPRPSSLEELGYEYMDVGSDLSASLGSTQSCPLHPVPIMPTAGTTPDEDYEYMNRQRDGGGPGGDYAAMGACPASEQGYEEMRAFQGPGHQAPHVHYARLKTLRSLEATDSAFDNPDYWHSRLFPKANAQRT

Row | SMILES | IC50 [1] [nM] | inhibition [2] | Activity [3]
1 | C#Cc1cccc(Nc2ncnc3cc(OCCOC)c(OCCOC)cc23)c1 [ERLOTINIB] | 299 | – | –
2 | COc1cc2ncnc(Nc3ccc(F)c(Cl)c3)c2cc1OCCCN1CCOCC1 [GEFITINIB] | > 500 | Active | Active
